Holding throughout (assay): Antibiotic activity, MIC by standard methodology
What all share (format): cell-based

For one test, the system named is S. aureus. An excerpt: (§1) Chemical synthesis of the sequence (SEQ ID NO. 4) corresponding to Peptides 1 and 2 (SEQ ID NOS: 1 and 2 respectively) containing native (unmodified) tryptophan was achieved by SPPS, using Fmoc chemistry.
Another test concerns P. aeruginosa.
Excerpt: as §1

The subject of another test is C. albicans.
Excerpt: as §1

The next test concerns E. coli.
Excerpt: as §1

No end group written: not given here. Bounds are passed on as bounds.

The source of these data is patent US5734015A, “Family of linear antimicrobial peptides from hagfish intestine” (Magainin Pharmaceuticals Inc., priority 1996, dated 1998).

“GFFKKAWRKVKHAGRRVLDTAKGVGRHYVNNWLNRYR [SEQ ID NO. 4]”: the “minimum inhibitory concentration (MIC)” value in the test on S. aureus is 8 µg/mL; with P. aeruginosa, 8 µg/mL; in the test on C. albicans, greater than 256 µg/mL; in the test with E. coli it was 8 µg/mL.
